Experimental data: the supplement of paper PMC10307832

Key:
Assay in all cases: relative viability (nuclei count vs DMSO), 5 days (fraction); higher = more cells survive
201T = system: 201T
Outline: (§1)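 Dosing by pin tool came one day after lung cancer cell lines were seeded in 1536-well plates, using either one drug or a fixed anchor-drug dose plus five library-drug doses (not always all listed) in √10 steps. After 5 days, nuclei were counted on 4× images. Relative viability is treated-well nuclei count divided by vehicle-well nuclei count, and values are medians of duplicate plates.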

COR-L23 = system: COR-L23
Outline: as §1

EKVX = system: EKVX
Outline: as §1

EPLC-272H = system: EPLC-272H
Outline: as §1

HCC-44 = system: HCC-44
Outline: as §1

LOU-NH91 = system: LOU-NH91
Outline: as §1

NCI-H1650 = system: NCI-H1650
Outline: as §1

NCI-H1734 = system: NCI-H1734
Outline: as §1

NCI-H1793 = system: NCI-H1793
Outline: as §1

NCI-H1993 = system: NCI-H1993
Outline: as §1

NCI-H2023 = system: NCI-H2023
Outline: as §1

NCI-H2085 = system: NCI-H2085
Outline: as §1

NCI-H2170 = system: NCI-H2170
Outline: as §1

NCI-H2347 = system: NCI-H2347
Outline: as §1

NCI-H2405 = system: NCI-H2405
Outline: as §1

NCI-H3122 = system: NCI-H3122
Outline: as §1

NCI-H441 = system: NCI-H441
Outline: as §1

NCI-H520 = system: NCI-H520
Outline: as §1

NCI-H647 = system: NCI-H647
Outline: as §1

PC-14 = system: PC-14
Outline: as §1

RERF-LC-KJ = system: RERF-LC-KJ
Outline: as §1

Work on `Clc1ccc(Nc2nnc(Cc3ccncc3)c3ccccc23)cc1` [Vatalanib] + CC1(C)CCC(c2ccc(Cl)cc2)=C(CN2CCN(c3ccc(C(=O)NS(=O)(=O)c4ccc(N[C@H](CCN5CCOCC5)CSc5ccccc5)c(S(=O)(=O)C(F)(F)F)c4)cc3)CC2)C1 [Navitoclax] (partner 0.5 µM) yielded a relative viability (201T; first compound 0.04 µM) of 1.17, a relative viability (201T; first compound 0.1265 µM) of 1.27 and a relative viability (201T; first compound 0.4 µM) of 1.25. It also gave a relative viability (201T; first compound 1.265 µM) of 1.25, a relative viability (201T; first compound 4 µM) of 1.21 and a relative viability (COR-L23; first compound 0.04 µM) of 1.1. The relative viability (COR-L23; first compound 0.1265 µM) was 0.972, the relative viability (COR-L23; first compound 0.4 µM) was 1.24 and the relative viability (COR-L23; first compound 1.265 µM) was 0.778. The relative viability (COR-L23; first compound 4 µM) was 1.01, the relative viability (EKVX; first compound 0.04 µM) was 0.924 and the relative viability (EKVX; first compound 0.1265 µM) was 0.928. For the same molecule, the relative viability (EKVX; first compound 0.4 µM) was 1, the relative viability (EKVX; first compound 1.265 µM) was 0.839 and the relative viability (EKVX; first compound 4 µM) was 0.891. The relative viability (EPLC-272H; first compound 0.04 µM) was 1.08, the relative viability (EPLC-272H; first compound 0.1265 µM) was 1.04 and the relative viability (EPLC-272H; first compound 0.4 µM) was 1.05. For the same molecule, the relative viability (EPLC-272H; first compound 1.265 µM) was 1.05, the relative viability (EPLC-272H; first compound 4 µM) was 1.13 and the relative viability (HCC-44; first compound 0.04 µM) was 0.933. It also gave a relative viability (HCC-44; first compound 0.1265 µM) of 0.916, a relative viability (HCC-44; first compound 0.4 µM) of 0.93 and a relative viability (HCC-44; first compound 1.265 µM) of 0.915. For the same molecule, the relative viability (HCC-44; first compound 4 µM) was 0.919, the relative viability (LOU-NH91; first compound 0.04 µM) was 0.703 and the relative viability (LOU-NH91; first compound 0.1265 µM) was 0.558. The relative viability (LOU-NH91; first compound 0.4 µM) was 0.61, the relative viability (LOU-NH91; first compound 1.265 µM) was 0.612 and the relative viability (LOU-NH91; first compound 4 µM) was 0.61. It also gave a relative viability (NCI-H1650; first compound 0.04 µM) of 1.32, a relative viability (NCI-H1650; first compound 0.1265 µM) of 1.2 and a relative viability (NCI-H1650; first compound 0.4 µM) of 1.41. For the same molecule, the relative viability (NCI-H1650; first compound 1.265 µM) was 0.951, the relative viability (NCI-H1650; first compound 4 µM) was 1.17 and the relative viability (NCI-H1734; first compound 0.04 µM) was 0.921. It also gave a relative viability (NCI-H1734; first compound 0.1265 µM) of 0.719, a relative viability (NCI-H1734; first compound 0.4 µM) of 0.927 and a relative viability (NCI-H1734; first compound 1.265 µM) of 0.823. It also gave a relative viability (NCI-H1734; first compound 4 µM) of 0.822, a relative viability (NCI-H1793; first compound 0.04 µM) of 0.452 and a relative viability (NCI-H1793; first compound 0.1265 µM) of 0.435. It also gave a relative viability (NCI-H1793; first compound 0.4 µM) of 0.498, a relative viability (NCI-H1793; first compound 1.265 µM) of 0.318 and a relative viability (NCI-H1793; first compound 4 µM) of 0.502. The relative viability (NCI-H1993; first compound 0.04 µM) was 0.894, the relative viability (NCI-H1993; first compound 0.1265 µM) was 0.935 and the relative viability (NCI-H1993; first compound 0.4 µM) was 0.826. The relative viability (NCI-H1993; first compound 1.265 µM) was 0.789, the relative viability (NCI-H1993; first compound 4 µM) was 0.63 and the relative viability (NCI-H2023; first compound 0.04 µM) was 1. The relative viability (NCI-H2023; first compound 0.1265 µM) was 1.02, the relative viability (NCI-H2023; first compound 0.4 µM) was 1.08 and the relative viability (NCI-H2023; first compound 1.265 µM) was 0.892. The relative viability (NCI-H2023; first compound 4 µM) was 0.982, the relative viability (NCI-H2085; first compound 0.04 µM) was 1.12 and the relative viability (NCI-H2085; first compound 0.1265 µM) was 1.25. It also gave a relative viability (NCI-H2085; first compound 0.4 µM) of 1.29, a relative viability (NCI-H2085; first compound 1.265 µM) of 1.05 and a relative viability (NCI-H2085; first compound 4 µM) of 1.01. It also gave a relative viability (NCI-H2170; first compound 0.04 µM) of 0.584, a relative viability (NCI-H2170; first compound 0.1265 µM) of 0.674 and a relative viability (NCI-H2170; first compound 0.4 µM) of 0.621. It also gave a relative viability (NCI-H2170; first compound 1.265 µM) of 0.51, a relative viability (NCI-H2170; first compound 4 µM) of 0.589 and a relative viability (NCI-H2347; first compound 0.04 µM) of 0.861. For the same molecule, the relative viability (NCI-H2347; first compound 0.1265 µM) was 0.78, the relative viability (NCI-H2347; first compound 0.4 µM) was 0.885 and the relative viability (NCI-H2347; first compound 1.265 µM) was 0.739. For the same molecule, the relative viability (NCI-H2347; first compound 4 µM) was 0.796, the relative viability (NCI-H2405; first compound 0.04 µM) was 0.856 and the relative viability (NCI-H2405; first compound 0.1265 µM) was 0.726. It also gave a relative viability (NCI-H2405; first compound 1.265 µM) of 0.728, a relative viability (NCI-H2405; first compound 4 µM) of 0.713 and a relative viability (NCI-H3122; first compound 0.04 µM) of 1.03. The relative viability (NCI-H3122; first compound 0.1265 µM) was 1.02, the relative viability (NCI-H3122; first compound 0.4 µM) was 1 and the relative viability (NCI-H3122; first compound 1.265 µM) was 1.06. It also gave a relative viability (NCI-H3122; first compound 4 µM) of 1.02, a relative viability (NCI-H441; first compound 0.04 µM) of 0.886 and a relative viability (NCI-H441; first compound 0.1265 µM) of 0.685. The relative viability (NCI-H441; first compound 0.4 µM) was 0.469, the relative viability (NCI-H441; first compound 1.265 µM) was 0.755 and the relative viability (NCI-H441; first compound 4 µM) was 0.54. For the same molecule, the relative viability (NCI-H520; first compound 0.04 µM) was 0.974, the relative viability (NCI-H520; first compound 0.1265 µM) was 1.02 and the relative viability (NCI-H520; first compound 0.4 µM) was 1.1. The relative viability (NCI-H520; first compound 1.265 µM) was 0.907, the relative viability (NCI-H520; first compound 4 µM) was 1.06 and the relative viability (NCI-H647; first compound 0.04 µM) was 1.08. It also gave a relative viability (NCI-H647; first compound 0.1265 µM) of 1.01, a relative viability (NCI-H647; first compound 1.265 µM) of 1.05 and a relative viability (NCI-H647; first compound 4 µM) of 0.957. It also gave a relative viability (PC-14; first compound 0.04 µM) of 1.04, a relative viability (PC-14; first compound 0.1265 µM) of 0.941 and a relative viability (PC-14; first compound 0.4 µM) of 1.07. It also gave a relative viability (PC-14; first compound 1.265 µM) of 1.03, a relative viability (PC-14; first compound 4 µM) of 0.997 and a relative viability (RERF-LC-KJ; first compound 0.04 µM) of 1.1. For the same molecule, the relative viability (RERF-LC-KJ; first compound 0.1265 µM) was 0.959, the relative viability (RERF-LC-KJ; first compound 0.4 µM) was 0.951 and the relative viability (RERF-LC-KJ; first compound 1.265 µM) was 0.79. The relative viability (RERF-LC-KJ; first compound 4 µM) was 0.822.
